In article PMC12490008 (Environmental Science & Technology, 2025):
*1 amine or outer side, *2 acyl side, *3 side chain or, on linkers, in order; H or OH if unused. Where a SMILES comes first, the peptide text is derived from it. Bridges are numbered along the chain shown (N, C = ends). [ ]: non-standard residue; d: D form. hTyr = N[C@@H](CCc1ccc(O)cc1)C(=O)O; NMeA = CN[C@@H](C)C(=O)O; CO = O=C([*:1])[*:2]

Assays:
[1] = test system: River Chriesbach biofilm suspension
[2] = test system: River Chriesbach biofilm suspension (100%, 10%, 1%)
[3] = test system: River Chriesbach river water
[4] = test system: River Chriesbach biofilm suspension (100%)

Molecule | removal within 3 days [1] | 1d removal, 1% biofilm [2] [%] | 1d removal, 10% biofilm [2] [%] | 1d removal, 100% biofilm [2] [%] | Half-lives (h), 10% biofilm [2] | Half-lives (h), 100% biofilm [2] [h] | 1d removal, River water [3] [%] | Half-lives (h), River water [3] | 1.3d removal, 2% metabolite [4] [%] | 1.3d removal, 10% metabolite [4] [%] | 1.3d removal, 100% metabolite [4] [%] | Half-lives (h), 10% metabolite [4] [h] | Half-lives (h), 100% metabolite [4] [h] | Half-lives (h), 1% biofilm [2] | Lag-time (h), 100% biofilm [2] [h] | Lag-time (h), River water [3] | Half-lives (h), 2% metabolite [4] [h] | Lag-time (h), 2% metabolite [4] [h] | Lag-time (h), 10% metabolite [4] [h] | Lag-time (h), 100% metabolite [4] [h] | also measured
CC[C@H](C)[C@@H]1NC(=O)[C@H](NC(=O)N[C@@H](CCCNC(=N)N)C(=O)O)CCCCNC(=O)[C@H](Cc2ccccc2)NC(=O)[C@H](C)N(C)C(=O)[C@H](CCc2ccc(O)cc2)NC1=O [Anabaenopeptin F] ({Arg-CO}-[dK]I[hTyr][NMeA]F; lactam 1-C) | more than 50% | -13 | 28 | 83 | 106.3 h | 11.5 | -44 | n.d.(decay) | 100 | 99 | 62 | 10.8 | 30.2 |  |  |  |  |  |  |  | 
Aerucyclamide A | 20% | -14 | -2 | -2 | n.d.(decay) | 66.9 | -23 | n.d.(decay) | 64 | 43 | 21 | 34.9 | 56.9 | n.d.(decay) | 66.8 | n.d.(decay) | 28.4 | 28.0 | 34.8 | 56.9 | Lag-time (h), 1% biofilm [2]: n.d.(decay); Lag-time (h), 10% biofilm [2]: n.d.(decay)
Anabaenopeptin A | 32-35% | -9 | 25 | 86 | 103.7 h | 11.5 | -28 | n.d.(decay) | 100 | 98 | 46 | 13.4 | 34.9 | 177.1 h | 10.2 | n.d.(decay) | 7.2 | 6.7 | 12.3 | 34.8 | Lag-time (h), 1% biofilm [2]: 98.1 h; Lag-time (h), 10% biofilm [2]: 102.8 h; expected river water half-lives [3]: 8.6 to 10.6 days
Anabaenopeptin B |  | -11 | 23 | 85 | 111.9 h | 10.4 | -23 | n.d.(decay) | 100 | 99 | 62 | 11.2 | 30.0 |  | 8.5 | n.d.(decay) | 6.2 | 5.3 | 10.3 | 29.9 | detectability at day 5 [1]: not detectable anymore; lag time (shoulder-log fitting) [1]: 2.3 days; Lag-time (h), 10% biofilm [2]: 111.7 h; initial removal at 1.3 days at decreased initial metabolite concentrations [4]: ~100%
Cyanopeptolin 963A | 32-35% | -26 | 5 | 56 |  |  | -81 |  | 100 | 98 | 64 |  | 29.6 |  |  |  |  |  |  | 29.5 | 
Cyanopeptolin 1020 |  |  | 31 | 91 | 64.2 h | 9.0 |  | 129.5 h | 100 | 100 | 94 | 8.3 | 9.9 | 112.1 h | 6.7 |  | 6.2 | 5.7 | 8.3 | 0.4 | detectability at day 5 [1]: not detectable anymore; lag time (shoulder-log fitting) [1]: 1.6 days; lag time, 1% biofilm [2]: 4.1 days; lag time, 10% biofilm [2]: 2.5 days; degradation in ambient river water [3]: detectable degradation; lag time, ambient river water [3]: 5.4 days
Cyanopeptolin A | more than 50% | 10 | 57 | 98 | 35.9 h | 5.1 | 3 | n.d.(decay) | 100 | 100 | 97 | 6.5 | 5.8 | 105.9 h | 0.8 | n.d.(decay) |  |  | 6.1 | 0.0 | Lag-time (h), 1% biofilm [2]: 89.7 h; Lag-time (h), 10% biofilm [2]: 0.0 h
Cyanopeptolin B | more than 50% | 16 | 49 | 100 |  |  | 2 |  | 100 | 100 | 96 |  | 7.7 |  |  |  |  |  |  | 0.0 | 
Cyanopeptolin C | more than 50% | 1 | 29 | 80 |  |  | -3 |  | 100 | 100 | 82 | 8.5 | 18.1 |  |  |  |  |  | 8.5 | 9.6 | 
Cyanopeptolin D | more than 50% | 4 | 26 | 77 |  | 19.1 | 11 | n.d.(decay) | 100 | 100 | 76 | 11.1 | 27.2 |  | 18.7 | n.d.(decay) | 7.4 | 7.3 | 10.5 | 27.2 | 
